Experimental data from US20020082254A1, “Compounds for treating disorders where a decreased level of plasma FFA is desired” (priority 2000, published 2002).
Like-named read-outs stand apart in the source and are kept apart here.

Experiments:
[1] = target: T1, Hormone-sensitive lipase (HSL) (Homo sapiens, UniProt Q05469); test: Hormone-sensitive lipase (HSL) inhibition assay, 3H-labeled triolein or MOME substrate; type: biochemical
T1 sequence (Q05469 1-1076): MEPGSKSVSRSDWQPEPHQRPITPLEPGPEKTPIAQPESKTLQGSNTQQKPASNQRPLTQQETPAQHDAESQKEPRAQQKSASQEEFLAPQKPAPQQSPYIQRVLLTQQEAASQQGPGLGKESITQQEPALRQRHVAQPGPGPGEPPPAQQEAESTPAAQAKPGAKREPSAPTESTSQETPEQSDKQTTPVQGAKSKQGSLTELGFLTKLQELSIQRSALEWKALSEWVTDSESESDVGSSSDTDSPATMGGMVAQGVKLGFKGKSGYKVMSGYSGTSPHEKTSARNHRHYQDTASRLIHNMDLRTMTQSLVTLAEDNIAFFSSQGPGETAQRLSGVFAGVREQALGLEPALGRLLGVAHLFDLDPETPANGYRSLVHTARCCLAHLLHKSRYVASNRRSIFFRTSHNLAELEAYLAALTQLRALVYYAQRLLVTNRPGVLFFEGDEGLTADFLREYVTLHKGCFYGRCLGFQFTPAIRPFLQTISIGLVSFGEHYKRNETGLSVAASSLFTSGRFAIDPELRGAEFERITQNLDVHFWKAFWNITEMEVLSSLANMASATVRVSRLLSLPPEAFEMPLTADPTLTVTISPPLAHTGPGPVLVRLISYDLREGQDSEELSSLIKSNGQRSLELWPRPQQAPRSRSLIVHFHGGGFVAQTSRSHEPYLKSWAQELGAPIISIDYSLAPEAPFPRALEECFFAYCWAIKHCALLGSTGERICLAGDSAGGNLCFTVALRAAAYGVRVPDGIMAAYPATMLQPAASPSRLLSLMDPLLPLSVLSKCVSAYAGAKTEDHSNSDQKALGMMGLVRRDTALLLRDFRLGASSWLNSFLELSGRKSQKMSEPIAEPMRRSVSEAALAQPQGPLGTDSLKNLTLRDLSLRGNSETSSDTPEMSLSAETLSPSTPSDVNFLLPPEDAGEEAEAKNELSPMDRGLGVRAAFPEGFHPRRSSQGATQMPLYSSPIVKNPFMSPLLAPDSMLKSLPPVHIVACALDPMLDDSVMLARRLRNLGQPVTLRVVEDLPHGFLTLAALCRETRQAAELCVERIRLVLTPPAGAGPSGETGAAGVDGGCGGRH
Description: Hormone-sensitive lipase (HSL) [classified as a triacylglycerol lipase, EC 3.1.1.3, in accordance with the Recommendations of the Nomenclature Committee of the International Union of Biochemistry and Molecular Biology (available on the World Wide Web at the following address: http://www.chem.qmw.ac.uk/iubmb/enzyme/)]
Materials. The Hormone-sensitive lipase employed was provided by Dr. Cecilia Holm of Lund University, Sweden, or produced and purified by Novo Nordisk (NN) using the reagents and protocols employed by Dr. Holm. The substrates used are: ^3H-labeled triolein (TO) from Amersham, Buckinghamshire, U.K. cat No. TRA191; 5-20 Ci/mmol dissolved in toluene, triolein (Sigma, Cat. No. T-1740) and mono-oleoyl-2-O-mono-oleylglycerol (MOME) synthesized at (NN) using the protocols provided by Dr. Cecilia Holm, Lund University, Sweden. Phosphatidyl choline (PC) and phosphatidyl inositol (PI) are from Sigma (St Luis Mo., cat. Nos. P-3556 and P-5954, respectively). All other reagents are of commercial grade and obtained from various commercial sources.
Methods. The preparation of the substrates is as follows:
TO: 30 μl PC:PI (20 mg/ml solution of PC:PI 3:1 prepared in chloroform)+128 μl cold TO+15 μl ^3H-TO
MOME: 30 μl PC:PI+100 μl cold MOME+200 μl ^3H-MOME
They are then evaporated under a gentle stream of N2 followed by 20-30 minutes in a Speedvac™ apparatus to ensure the absence of residual solvent.
The samples are prepared as follows:
Samples/controls: 78 μl PED-BSA+20 μl inhibitor (various concentrations)+2 μl HSL (undiluted 0.12 mg/ml). If no inhibitors are being tested, the reaction contains 98 μl PED-BSA+2 μl HSL.
The samples are put on ice and then sonicated as follows:
With TO as substrate, add 2 ml potassium buffer (0.1M potassium phosphate, pH 7) and then sonicate twice for 1 minute, with a 1-minute interval between cycles. Add an additional 1 ml potassium buffer and sonicate 4 times for 30 seconds, with a 30 second interval in between cycles. To finish, add 1 ml BSA 20%-in potassium buffer, mix by inversion and store on ice until use.
With MOME as substrate: add 2 ml potassium buffer and then sonicate twice for 1 minute, with a 1 minute interval between cycles. Add 1.6 ml potassium buffer and sonicate 4 times for 30 seconds, with a 30-second interval between cycles. To finish, add 0.4 ml BSA 20%-buffer, mix by inversion and store on ice until use.
The enzyme reaction is run at 37° C. The substrate mix is added to the various reactions at 10 second intervals, incubated for 30 minutes in a water bath and then stopped with 3.25 ml of a solution containing CH3OH:CHCl3:heptane (10:9:7). After the addition of 1.05 ml potassium buffer pH10.5, the sample is vortexed thoroughly and centrifuged for 20 min at 2000 r.p.m. One ml of the upper phase is added to 10 ml scintillation fluid, and mixed thoroughly by shaking.
The samples are then counted, 5 min per vial, in a scintillation counter.

[2] = target: T2, Lipoprotein lipase (LPL) (Bos taurus, UniProt P11151); test: Lipoprotein lipase (LPL) inhibition assay, 3H-triolein/intralipid substrate; type: biochemical; conditions: read-out: LPL inhibition (% inh. at 50 μM)
T2 construct: Dr. Gunilla Olivecrona, Umea University (gift)
T2 sequence (P11151 29-478): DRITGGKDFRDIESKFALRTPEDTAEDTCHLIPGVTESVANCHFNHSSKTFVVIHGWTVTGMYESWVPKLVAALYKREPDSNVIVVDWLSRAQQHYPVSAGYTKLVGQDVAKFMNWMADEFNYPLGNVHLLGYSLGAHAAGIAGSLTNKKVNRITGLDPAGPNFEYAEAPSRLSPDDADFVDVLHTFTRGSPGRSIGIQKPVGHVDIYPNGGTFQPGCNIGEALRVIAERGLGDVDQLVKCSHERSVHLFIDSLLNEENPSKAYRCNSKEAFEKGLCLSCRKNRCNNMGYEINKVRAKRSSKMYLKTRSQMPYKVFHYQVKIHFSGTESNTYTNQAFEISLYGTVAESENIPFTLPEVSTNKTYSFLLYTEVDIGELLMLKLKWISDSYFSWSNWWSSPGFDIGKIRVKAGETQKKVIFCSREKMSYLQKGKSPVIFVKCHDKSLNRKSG
Description: Lipoprotein Lipase (LPL) [Classified as EC 3.1.1.34 in accordance with the Recommendations of the Nomenclature Committee of the International Union of Biochemistry and Molecular Biology (available on the World Wide Web at the following address: http://www.chem.qmw.ac.uk/iubmb/enzyme/)]
Materials. The lipoprotein lipase employed was obtained from Dr. Gunilla Olivecrona of Umea University, Sweden. ^3H-triolein (TO) from Amersham, Buckinghamshire, U.K., cat No. TRA191; 5-20 Ci/mmol dissolved in toluene. Intralipid is from Kabi-Fresenius). Apo CII was obtained from PMSF-treated plasma from overnight fasted rats. All other reagents are of commercial grade and obtained from various commercial sources.
Methods. The preparation of the substrate is as follows:
25 μl of ^3H-Triolein evaporated under a gentle stream of N2 in a 27° C. room in 4 ml chromacol glass followed by the addition of 1 ml 10% intralipid. This is mixed and sonicated on ice for 5 minutes (50% pulse mode). This can be kept for 1 week at 4° C.
100 μl assay medium (0.3M Tris-Cl, 0.2M NaCl, 0.2 mg heparin/ml and 120 mg BSA/ml (fraction V, Sigma no. 3401, pH 8.5))
All mixed in a 13×100 mm glass tube and incubated for at least 5 minutes.
2. Add 5 μl LPL (of a solution containing 500 mU/mg)
Mix and incubate for 30 minutes at 25° C.
3. The reaction is stopped with 3.25 ml of a solution containing Methanol:chloroform:heptan 10:9:7. Add 1.05 ml buffer (100 mM Boric acid, 100 mM potassium carbonate pH 10.5) and mix 10 seconds per vial.
5. Take 1 ml of the upper phase+10 ml scintillation fluid and mix
6. Scintillation count for 5 minutes per vial.

[3] = read-out: HSL inhibition (IC50)

SMILES	IC50 [1, 3] [nM]	inhibition at 50 µM [2] [%]	IC50 [1] [nM]
CC(=O)Nc1ccc(OC(=O)NN2CCc3ccccc3C2)cc1 [Example 25]	> 10000	–	–
CCOC(=O)c1ccc(OC(=O)NN2CCc3ccccc3C2)cc1 [Example 35]	> 10000	0	–
CCCCCOc1ccc(OC(=O)NN2CCc3ccccc3C2)cc1 [Example 37]	3900	0	–
CN(C(=O)Oc1ccc(Cl)cc1)N1CCc2ccccc2C1 [Example 21, (3,4-Dihydro-1H-isoquinolin-2-yl)-methyl-carbamic Acid 4-chloro-phenyl Ester]	> 10000	5	–
O=C(NN1CCc2ccccc2C1)Oc1ccc(OC(F)(F)F)cc1 [Example 40]	3400	1	–
COc1ccc(OC(=O)NN2CCc3ccccc3C2)cc1 [Example 3, (3,4-Dihydro-1H-isoquinolin-2-yl)-carbamic acid 4-methoxy-phenyl Ester]	360	0	–
CCCOc1ccc(OC(=O)NN2CCc3ccccc3C2)cc1 [Example 39]	2500	2	–
O=C(NN1CCc2ccccc2C1)Oc1ccccc1Br [Example 14, (3,4-Dihydro-1H-isoquinolin-2-yl)-carbamic Acid 2-bromo-phenyl Ester]	800	7	–
O=C(NN1CCc2ccccc2C1)Oc1ccc(C(F)(F)F)cc1 [Example 13, (3,4-Dihydro-1H-isoquinolin-2-yl)-carbamic Acid 4-trifluoromethyl-phenyl Ester]	45	3	–
CCC(=O)c1ccc(OC(=O)NN2CCc3ccccc3C2)cc1 [Example 24]	> 10000	–	–
CCC(C)c1ccc(OC(=O)NN2CCc3ccccc3C2)cc1 (centres unmarked) [Example 33]	170	2	–
CCCCOc1ccc(OC(=O)NN2CCc3ccccc3C2)cc1 [Example 30]	3800	6	–
COC(=O)Cc1ccc(OC(=O)NN2CCc3ccccc3C2)cc1 [Example 42]	40	6	–
CCCc1ccc(OC(=O)NN2CCc3ccccc3C2)cc1 [Example 20, (3,4-Dihydro-1H-isoquinolin-2-yl)-carbamic Acid 4-propyl-phenyl Ester]	240	4	–
Cc1ccc(C(=O)c2ccc(OC(=O)NN3CCc4ccccc4C3)cc2)cc1 [Example 26]	> 10000	–	–
CC1c2ccccc2CCN1NC(=O)Oc1ccc(Cl)cc1 (centres unmarked) [Example 22, (1-Methyl-3,4-dihydro-1H-isoquinolin-2-yl)-carbamic Acid 4chloro-phenyl Ester]	30	10	–
O=C(NN1CCc2ccccc2C1)Oc1ccc(Oc2ccccc2)cc1 [Example 38]	330	0	–
COC(=O)c1ccc(OC(=O)NN2CCc3ccccc3C2)cc1 [Example 4, 4-(3,4-Dihydro-1H-isoquinolin-2-ylcarbamoyloxy)-benzoic Acid Methyl Ester]	9900	20	–
S=C(NN1CCc2ccccc2C1)Sc1ccccc1 [Example 50, (3,4-Dihydro-1H-isoquinolin-2-yl)-dithiocarbamic Acid Phenyl Ester]	> 10000	–	–
O=C(NN1CCc2ccccc2C1)Oc1ccc(C(=O)CCCCl)cc1 [Example 44]	> 10000	–	–
O=C(NN1CCc2ccccc2C1)Oc1ccccc1F [Example 15, (3,4-Dihydro-1H-isoquinolin-2-yl)-carbamic Acid 2-fluoro-phenyl Ester]	1500	0	–
O=C(NN1CCc2ccccc2C1)Oc1ccc(-c2ccccc2)cc1 [Example 36]	> 10000	–	–
O=C(NN1CCc2ccccc2C1)Oc1ccc(Cl)c(C(F)(F)F)c1 [Example 47]	> 10000	–	–
O=C(NN1CCc2ccccc2C1)Oc1ccc(C(=O)c2ccccc2)cc1 [Example 41]	> 10000	–	–
O=C(NN1CCOCC1)Oc1ccc(Cl)cc1 [Example 49, Morpholin-4-yl-carbamic Acid 4-chloro-phenyl Ester]	–	–	100
CN(C)CCc1ccc(OC(=O)NN2CCc3ccccc3C2)cc1 [Example 34]	> 10000	–	–
CC(=O)c1ccc(OC(=O)NN2CCc3ccccc3C2)cc1 [Example 45]	> 10000	–	–
O=C(NN1CCCCC1)Oc1ccc(Cl)cc1 [Example 48, Piperidin-1-yl-carbamic Acid 4-chloro-phenyl Ester]	–	–	50
